Laboratory results published in the supplement of paper PMC10307832.

Tests used:
Experiment in all cases: relative viability (nuclei count vs DMSO), 5 days (fraction); higher = more cells survive
[1] = compound: CN(C)CC1=CC(=CC=C1)N=C(C2=CC=CC=C2)C3=C(NC4=C3C=CC(=C4)C(=O)N(C)C)O + Cc1nc(NC(=O)N2CCC[C@H]2C(N)=O)sc1-c1ccnc(C(C)(C)C(F)(F)F)c1 [Alpelisib] (partner 2 µM)
Summary of the method: (§1)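 Lung cancer cell lines in 1536-well plates got either a single drug or a fixed anchor-drug dose together with five library-drug doses (not always all listed) in √10 steps, by pin tool, on the day after seeding. Nuclei were counted after 5 days, and relative viability is the treated-to-vehicle ratio of nuclei counts. Values are medians of duplicate plates.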

[2] = compound: CN(C)CC1=CC(=CC=C1)N=C(C2=CC=CC=C2)C3=C(NC4=C3C=CC(=C4)C(=O)N(C)C)O + Cc1cc(Nc2cc(N3CCN(C)CC3)nc(Sc3ccc(NC(=O)C4CC4)cc3)n2)n[nH]1 [Tozasertib] (partner 0.1 µM)
Summary of the method: as §1

[3] = compound: CN(C)CC1=CC(=CC=C1)N=C(C2=CC=CC=C2)C3=C(NC4=C3C=CC(=C4)C(=O)N(C)C)O + CCNC(=O)c1noc(-c2cc(C(C)C)c(O)cc2O)c1-c1ccc(CN2CCOCC2)cc1 [Luminespib] (partner 0.01 µM)
Summary of the method: as §1

[4] = compound: CN(C)CC1=CC(=CC=C1)N=C(C2=CC=CC=C2)C3=C(NC4=C3C=CC(=C4)C(=O)N(C)C)O + Cc1nc(Nc2ncc(C(=O)Nc3c(C)cccc3Cl)s2)cc(N2CCN(CCO)CC2)n1 [Dasatinib] (partner 0.075 µM)
Summary of the method: as §1

Row | Cell Line | relative viability ([1]; first compound 0.08 µM) | relative viability ([1]; first compound 0.253 µM) | relative viability ([1]; first compound 0.8 µM) | relative viability ([1]; first compound 2.53 µM) | relative viability ([1]; first compound 8 µM) | relative viability ([2]; first compound 0.08 µM) | relative viability ([2]; first compound 0.253 µM) | relative viability ([2]; first compound 0.8 µM) | relative viability ([2]; first compound 2.53 µM) | relative viability ([2]; first compound 8 µM) | relative viability ([3]; first compound 0.08 µM) | relative viability ([3]; first compound 0.253 µM) | relative viability ([3]; first compound 0.8 µM) | relative viability ([3]; first compound 2.53 µM) | relative viability ([3]; first compound 8 µM) | relative viability ([4]; first compound 0.08 µM) | relative viability ([4]; first compound 0.253 µM) | relative viability ([4]; first compound 0.8 µM) | relative viability ([4]; first compound 2.53 µM) | relative viability ([4]; first compound 8 µM)
1 | NCI-H322M | 0.768 | 0.714 | 0.695 | 0.797 | 0.708 | 0.432 | 0.42 | 0.407 | 0.449 | 0.317 | 0.808 | 0.864 | 0.62 | 0.707 | 0.532 | 0.253 | 0.266 | 0.251 | 0.247 | 0.252
2 | NCI-H358 | 0.743 | 0.814 | 0.766 | 0.718 | 0.606 | 0.105 | 0.0937 | 0.0915 | 0.096 | 0.116 | 0.304 | 0.277 | 0.331 | 0.414 | 0.276 | 0.171 | 0.158 | 0.138 | 0.163 | 0.183
3 | NCI-H441 | 0.717 | 0.761 | 0.642 | 0.834 | 0.495 | 0.625 | 0.603 | 0.67 | 0.634 | 0.588 | 0.303 | 0.304 | 0.364 | 0.381 | 0.354 | 0.521 | 0.68 | 0.529 | 0.582 | 0.505
4 | NCI-H460 | 0.521 | 0.454 | 0.467 | 0.401 | 0.229 | 0.292 | 0.574 | 0.62 | 0.426 | 0.397 | 0.0333 | 0.0284 | 0.0254 | 0.0282 | 0.0318 | 0.669 | 0.558 | 0.736 | 0.387 | 0.398
5 | NCI-H520 | 0.865 | 0.871 | 0.825 | 0.725 | 0.656 | 0.45 | 0.373 | 0.425 | 0.454 | 0.386 | 0.218 | 0.197 | 0.239 | 0.221 | 0.236 | 0.189 | 0.197 | 0.183 | 0.162 | 0.165
6 | NCI-H596 | 0.504 | 0.491 | 0.459 | 0.536 | 0.447 | 0.898 | 0.851 | 0.826 | 0.847 | 0.906 | 0.974 | 1.24 | 0.993 | 1.14 | 0.551 | 0.575 | 0.648 | 0.628 | 0.618 | 0.602
7 | NCI-H647 | 1.2 | 1.14 | 1.14 | 0.98 | 0.66 | 0.262 | 0.362 | 0.263 | 0.356 | 0.235 | 0.103 | 0.133 | 0.227 | 0.199 | 0.184 | 0.201 | 0.235 | 0.173 | 0.195 | 0.111
8 | NCI-H650 | 1.05 | 0.956 | 1.2 | 0.945 | 0.825 | 0.815 | 0.754 | 0.683 | 0.718 | 0.663 | 0.843 | 0.777 | 0.872 | 0.667 | 0.861 | 0.521 | 0.487 | 0.447 | 0.461 | 0.447
